According to US8022069B2, “Substituted piperidines as renin inhibitors” (Novartis AG, priority 2008, dated 2011):

Molecular target: T1, renin (Homo sapiens, UniProt P00797)
T1 construct: This test measures the formation of angiotensin I in human plasma; from tissue; host or cells: human plasma
T1 sequence (P00797 67-406): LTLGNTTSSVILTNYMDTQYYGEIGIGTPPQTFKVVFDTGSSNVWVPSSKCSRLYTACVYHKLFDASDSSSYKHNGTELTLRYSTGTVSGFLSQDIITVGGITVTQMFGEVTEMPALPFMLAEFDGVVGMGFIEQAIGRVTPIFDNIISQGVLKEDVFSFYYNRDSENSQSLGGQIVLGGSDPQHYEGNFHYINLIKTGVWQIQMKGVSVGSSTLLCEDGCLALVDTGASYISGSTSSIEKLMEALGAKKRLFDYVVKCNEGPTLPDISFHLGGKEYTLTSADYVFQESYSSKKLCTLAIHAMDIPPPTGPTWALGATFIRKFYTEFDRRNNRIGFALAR
Experiment: formation of angiotensin I in human plasma, radioimmunoassay (Nussberger et al.)
Assay type: biochemical
Details: values in the range of about, read-out: IC50, inhibition of the formation of angiotensin I
Protocol: The effect of renin inhibitors is detected inter alia experimentally by means of in vitro tests where the reduction in the formation of angiotensin I is measured in various systems (human plasma, purified human renin together with synthetic or natural renin substrate). The following in vitro test of Nussberger et al. (1987) J. Cardiovascular Pharmacol., Vol. 9, pp. 39-44, is used inter alia. This test measures the formation of angiotensin I in human plasma. The amount of angiotensin I formed is determined in a subsequent radioimmunoassay. The effect of inhibitors on the formation of angiotensin I is tested in this system by adding various concentrations of these substances. The IC50 is defined as the concentration of the particular inhibitor which reduces the formation of angiotensin I by 50%. The compounds of the present invention show inhibitory effects in the in vitro systems at minimal concentrations of about 10^−6 mol/l to about 10^−10 mol/l.

Row | SMILES | IC50 [nM]
1 | CCO[C@H](C)COCc1ccc([C@H]2C[C@@H](CC(C)(C)C(=O)NC)NC[C@@H]2OCc2ccc3c(c2)N(CCCOC)CCO3)cc1 [Example 5, 3-{(2S,4R,5R)-4-[4-((R)-2-Ethoxy-propoxymethyl)-phenyl]-5-[4-(3-methoxy-propyl) -3,4-dihydro-2H-benzo[1,4]oxazin-6-ylmethoxy]-piperidin-2-yl}-2,2,N-trimethyl-propionamide] | 0.1 to 10
2 | CCO[C@H](C)COCc1ccc([C@H]2C[C@H](CCn3cnnc3)NC[C@@H]2OCc2ccc3c(c2)N(CCCOC)CCO3)cc1 [Example 9, 6-[(3R,4R,6R)-4-[4-((R)-2-Ethoxy-propoxymethyl)-phenyl]-6-(2-[1,2,4]triazol-4-yl-ethyl) -piperidin-3-yloxymethyl]-4-(3-methoxy-propyl)-3,4-dihydro-2H-benzo[1,4]oxazine] | 0.1 to 10
